This note sets out measurements from US20060063162A1, “Biological marker for inflammation” (priority 2004, published 2006).

Holding throughout (type): cell-based, human
Test [1] has as its system PSG expression in coronary arterial smooth muscle cells. Nature of the test: Microarray analysis of PSG gene expression in coronary artery smooth muscle cells after atherogenic stimuli. The following applies: for PSG1 expression response / PSG 2 expression / PSG6 expression: SMCs from coronary artery; for PSG expression: coronary arterial smooth muscle cells, after treatment. The text has this:
(§1) Vein and artery respond differently to atherogenic lesion under different conditions. […] However, venous bypass grafts can develop accelerated atherosclerosis in vein graft disease for patients after bypass surgery. […] This could possibly be explained by the different roles of endothelial and smooth muscle cells in the development of atherosclerosis. Endothelial cells (EC) are critical in the initiation of atherosclerosis, while smooth muscle cells (SMC) are closely related to the evolution of the atheroma. The global gene expression responses to various atherogenic stimulations between human venous and arterial cells have been determined to identify genes that may contribute to different susceptibilities to atherosclerosis.
(§2) When gene expression of untreated saphenous vein endothelial cells (SVEC) and coronary artery endothelial cells (CAEC) were compared by microarray analysis, five isoforms (PSG1, PSG3, PSG6, PSG7 and PSG9) out of 9 isoforms in the arrays were higher (>1.5 fold and P<0.005) in SVEC than CAEC. In untreated saphenous vein smooth muscle cells (SVSM) and coronary artery smooth muscle cells (CASM), all 9 isoforms of PSGs in the arrays are expressed higher in SVSM than CASM (See Table 1). It is unlikely a false positive result from arrays, since the result was obtained from 4 separate primary cultures from two-donors and more than 5 microarray data sets, and multiple PSG isoforms had similar changes. […] In basal state, PSG expression is higher in vein than artery.
Oxidized LDL (OxLDL), a key atherogenic factor, pro-inflammatory cytokines TNFα and IL1β, as well as cytokines regulating cell proliferation, differentiation and migration like PDGF and TGFβ all up-regulate PSG expression in coronary arterial smooth muscle cells.

Test [2] relates to PSG expression in SMCs from saphenous vein. Briefly: Microarray analysis of PSG gene expression in saphenous vein smooth muscle cells after atherogenic stimuli.
Text: as §1, §2
The gene expression of PSG isoforms is quite different between the two SMCs. In SMCs from saphenous vein, TGFβ and TNFα down-regulate the expression of PSG1. TGFβ also down-regulates PSG9.

The test system of test [3] is PSG expression in endothelial cells from vein. Nature of the test: Microarray analysis of PSG gene expression in saphenous vein endothelial cells after atherogenic stimuli. The settings on record: after treatment.
Text: as §1
When gene expression of untreated saphenous vein endothelial cells (SVEC) and coronary artery endothelial cells (CAEC) were compared by microarray analysis, five isoforms (PSG1, PSG3, PSG6, PSG7 and PSG9) out of 9 isoforms in the arrays were higher (>1.5 fold and P<0.005) in SVEC than CAEC. In untreated saphenous vein smooth muscle cells (SVSM) and coronary artery smooth muscle cells (CASM), all 9 isoforms of PSGs in the arrays are expressed higher in SVSM than CASM (See Table 1). […]

Test [4] concerns PSG expression in endothelial cells from artery. Nature of the test: Microarray analysis of PSG gene expression in coronary artery endothelial cells after atherogenic stimuli. The settings on record: after treatment.

TGFβ: in test [1], the PSG1 expression response entry is on record as “opposite responses”, the “PSG 2 expression” value is given as “up-regulated”, the PSG6 expression result is listed as “up-regulated” and the PSG expression result is recorded as “up-regulate”. For the same substance, in test [2], the PSG1 expression result was “down-regulate” and the PSG9 expression result was “down-regulates”.

IL1β: pro-inflammatory cytokine: in test [1], the PSG1 expression response entry was “opposite responses”, the “PSG 2 expression” value is given as “up-regulated”, the PSG6 expression result is on record as “up-regulated” and the PSG expression result is recorded as “up-regulate”. Also, the PSG expression entry in test [3] was “No significant change”. For the same substance, the PSG expression entry in test [4] is “No significant change”.

Turning to PDGF, in test [1], the “PSG 2 expression” value is recorded as “up-regulated”, the PSG6 expression result is given as “up-regulated” and the PSG expression entry is given as “up-regulate”.

For TNFα, in test [1], the “PSG 2 expression” value is “up-regulated”, the PSG6 expression entry is reported as “up-regulated” and the PSG expression result is on record as “up-regulate”. The PSG1 expression entry in test [2] is “down-regulate”. Besides, the PSG expression entry in test [3] is “No significant change”. In addition, the PSG expression entry in test [4] is reported as “No significant change”.
